Results published in ChEMBL document CHEMBL5050860, “Substrate selective hsd17b13 inhibitors and uses thereof” (2021).

Tests used:
[1] = Inhibition of His-tagged HSD17B13 (unknown origin) using LTB3 as substrate incubated for 1 hr and measured after 1 hr by fluorescence based assay; parameters: species or system Homo sapiens
[2] = species: Homo sapiens; test: Ratio of Ki for inhibition of His-tagged HSD17B13 (unknown origin) using LTB3 as substrate to Ki for His-tagged HSD17B13 (unknown origin) using estradiol as substrate
[3] = Inhibition of His-tagged HSD17B13 (unknown origin) using estradiol as substrate incubated for 2 hrs and measured by LC-MS/MS analysis; parameters: species or system Homo sapiens

SMILES | Ki [1] | Ratio Ki [2] | Ki [3]
Cc1cc(-c2ccc(-c3cccc(O)c3)s2)ccc1O | 1070 nM | 0.14 | 7580 nM
CCOC(=O)c1cccc(-n2c(-c3ccncc3)nc3cc(OC)ccc32)c1 | 2720 nM | < 0.091 | > 30000 nM
Oc1cccc(-c2nccc3cc(O)ccc23)c1 | > 30000 nM | > 3.5 | 8550 nM
O=C1c2ccc(O)cc2C(=O)c2ccc(O)cc21 [ANTHRAFLAVICACID] | 2810 nM | 8.8 | 320 nM
